In brackets after ≈: the same amount, converted by molar mass.
Columns and labels:
Assay type in all cases: cell-based
[1] = test system: Aspergillus terreus AT49; assay: MIC, RPMI medium; conditions: for MIC grade, A. terreus 49: MIC banded into grades
Outline: (§1)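 RPMI (2% glucose, 0.135 M MOPS, pH 7.0) microdilution; drug 50-0.05 mg/L doubling series; inoculum 1−2×10^4 cfu/mL; 24-48 h, 35° C; OD485; MIC = lowest conc. with >80% inhibition vs drug-free control.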

[2] = test system: Aspergillus terreus AT4; assay: MIC, RPMI medium; conditions: for MIC grade, A. terreus: MIC banded into grades
Outline: as §1

[3] = test system: Aspergillus fumigatus AF210; assay: MIC, RPMI medium; conditions: for MIC grade, A. fumigatus 210: MIC banded into grades
Outline: as §1

[4] = test system: Aspergillus flavus; assay: MIC, RPMI medium; conditions: MIC banded into grades
Outline: as §1

[5] = test system: Candida krusei; assay: MIC, RPMI medium; conditions: 24-48 h at 35° C., >80% growth inhibition, banded into grades
Outline: as §1

[6] = test system: Aspergillus fumigatus AF293; assay: MIC, RPMI medium; conditions: for MIC grade, A. fumigatus: MIC banded into grades
Outline: as §1

[7] = test system: Aspergillus niger; assay: MIC, RPMI medium; conditions: MIC banded into grades
Outline: as §1

[8] = test system: Candida glabrata; assay: MIC, RPMI medium; conditions: 24-48 h at 35° C., >80% growth inhibition, banded into grades
Outline: as §1

[9] = test system: Candida parapsilosis; assay: MIC, RPMI medium; conditions: 24-48 h at 35° C., >80% growth inhibition, banded into grades
Outline: as §1

[10] = test system: Candida albicans; assay: MIC, RPMI medium; conditions: 24-48 h at 35° C., >80% growth inhibition, banded into grades
Outline: as §1

[11] = test system: Candida tropicalis; assay: MIC, RPMI medium; conditions: 24-48 h at 35° C., >80% growth inhibition, banded into grades
Outline: as §1

[12] = test system: Aspergillus terreus AT49; assay: MIC, YAG medium; conditions: 24 h at 35° C, MIC banded into grades
Outline: (§2)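 Growth inhibition was measured by absorbance at 485 nm following 24 h at 35° C. Spores harvested after 5 days on Sabouraud agar served as inoculum (1−2×10^4 cfu/mL, YAG medium). The lowest drug level producing >70% inhibition was taken as MIC.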

[13] = test system: Aspergillus terreus AT4; assay: MIC, YAG medium; conditions: 24 h at 35° C, MIC banded into grades
Outline: as §2

[14] = test system: Aspergillus fumigatus AF210; assay: MIC, YAG medium; conditions: 24 h at 35° C, MIC banded into grades
Outline: as §2

[15] = test system: Aspergillus flavus; assay: MIC, YAG medium; conditions: 24 h at 35° C, MIC banded into grades
Outline: as §2

[16] = test system: Aspergillus fumigatus AF293; assay: MIC, YAG medium; conditions: 24 h at 35° C, MIC banded into grades
Outline: as §2

[17] = test system: Aspergillus niger; assay: MIC, YAG medium; conditions: 24 h at 35° C, MIC banded into grades
Outline: as §2

[18] = Aspergillus niger, read-out: MIC grade, A. niger

Row | Structure (SMILES) | MIC grade, A. terreus 49 [1] | MIC grade, A. terreus [2] | MIC grade, A. fumigatus 210 [3] | MIC grade, A. flavus [4] | Candida MIC, C. krusei [5] | MIC grade, A. fumigatus [6] | MIC grade, A. niger [7] | Candida MIC, C. glabrata [8] | Candida MIC, C. parapsilosis [9] | Candida MIC, C. albicans [10] | Candida MIC, C. tropicalis [11] | MIC grade, A. terreus 49 [12] | MIC grade, A. terreus [13] | MIC grade, A. fumigatus 210 [14] | MIC grade, A. flavus [15] | MIC grade, A. fumigatus [16] | MIC grade, A. niger [17] | other results
1 | COCCn1c(C)cc(-c2ccccc2)c1C(=O)C(=O)Nc1ccc(N2CCN(c3cc(C)cc(C)n3)CC2)cc1 [Example 9, N-{4-[4-(4,6-Dimethyl-pyridin-2-yl)-piperazin-1-yl]-phenyl}-2-[1-(2-methoxy-ethyl)-5-methyl-3-phenyl-1H-pyrrol-2-yl]-2-oxo-acetamide] |  |  |  |  |  |  |  |  |  |  |  |  |  |  |  |  |  | MIC ([1]; Aspergillus terreus, AT49, MIC banded into grades, read-out: MIC grade, A. terreus 49): 1 to 10 µg/mL (≈ 1.81 to 18.1 µM); MIC ([2]; Aspergillus terreus, AT4, MIC banded into grades, read-out: MIC grade, A. terreus): 1 to 10 µg/mL (≈ 1.81 to 18.1 µM); MIC ([3]; Aspergillus fumigatus, AF210, MIC banded into grades, read-out: MIC grade, A. fumigatus 210): < 1 µg/mL; MIC ([4]; Aspergillus flavus, read-out: MIC grade, A. flavus): > 10 µg/mL; MIC ([5]; Pichia kudriavzevii): < 1 µg/mL; MIC ([6]; Aspergillus fumigatus, AF293, MIC banded into grades, read-out: MIC grade, A. fumigatus): < 1 µg/mL; MIC [7, 18]: < 1 µg/mL; MIC ([8]; Nakaseomyces glabratus): < 1 µg/mL; MIC ([9]; Lodderomyces parapsilosis): < 1 µg/mL; MIC ([10]; Candida albicans): 1 to 10 µg/mL (≈ 1.81 to 18.1 µM); MIC ([11]; Candida tropicalis): 1 to 10 µg/mL (≈ 1.81 to 18.1 µM); MIC ([12]; Aspergillus terreus, read-out: MIC grade, A. terreus 49): < 1 µg/mL; MIC ([13]; Aspergillus terreus, read-out: MIC grade, A. terreus): < 1 µg/mL; MIC ([14]; Aspergillus fumigatus, read-out: MIC grade, A. fumigatus 210): < 1 µg/mL; MIC ([15]; Aspergillus flavus, 24 h, read-out: MIC grade, A. flavus): < 1 µg/mL; MIC ([16]; Aspergillus fumigatus, read-out: MIC grade, A. fumigatus): < 1 µg/mL; MIC [17, 18]: < 1 µg/mL
2 | COC(=O)Cn1ccc(-c2cccs2)c1C(=O)C(=O)Nc1ccc(N2CCN(c3cc(C)cc(C)n3)CC2)cc1 [Example 87, (2-{4-[4-(4,6-Dimethyl-pyridin-2-yl)-piperazin-1-yl]-phenylaminooxalyl}-3-thiophen-2-yl-pyrrol-1-yl)-acetic acid methyl ester] | 2 (A grade of 2 represents an MIC of from 1 to 10 mg/L) | 2 (A grade of 2 represents an MIC of from 1 to 10 mg/L) | 3 (A grade of 3 represents an MIC of less than 1 mg/L) | 1 (a grade of 1 represents an MIC of greater than 10 mg/L) | 2 (A grade of 2 represents an MIC of from 1 to 10 mg/L) | 3 (A grade of 3 represents an MIC of less than 1 mg/L) | 3 (A grade of 3 represents an MIC of less than 1 mg/L) | 3 (A grade of 3 represents an MIC of less than 1 mg/L) | 3 (A grade of 3 represents an MIC of less than 1 mg/L) | 2 (A grade of 2 represents an MIC of from 1 to 10 mg/L) | 3 (A grade of 3 represents an MIC of less than 1 mg/L) | 3 (A grade of 3 represents an MIC of less than 1 mg/L) | 2 (A grade of 2 represents an MIC of from 1 to 10 mg/L) | 3 (A grade of 3 represents an MIC of less than 1 mg/L) | 1 (a grade of 1 represents an MIC of greater than 10 mg/L) | 3 (A grade of 3 represents an MIC of less than 1 mg/L) | 3 (A grade of 3 represents an MIC of less than 1 mg/L) | 
3 | COCCn1ccc(C2CCC2)c1C(=O)C(=O)Nc1ccc(N2CCN(c3cc(C)cc(C)n3)CC2)cc1 [Example 104, 2-[3-Cyclobutyl-1-(2-methoxy-ethyl)-1H-pyrrol-2-yl]-N-{4-[4-(4,6-dimethyl-pyridin-2-yl)-piperizin-1-yl]-phenyl}-2-oxo-acetamide] | 1 (a grade of 1 represents an MIC of greater than 10 mg/L) | 1 (a grade of 1 represents an MIC of greater than 10 mg/L) | 1 (a grade of 1 represents an MIC of greater than 10 mg/L) | 1 (a grade of 1 represents an MIC of greater than 10 mg/L) | 2 (A grade of 2 represents an MIC of from 1 to 10 mg/L) | 1 (a grade of 1 represents an MIC of greater than 10 mg/L) | 1 (a grade of 1 represents an MIC of greater than 10 mg/L) | 3 (A grade of 3 represents an MIC of less than 1 mg/L) | 3 (A grade of 3 represents an MIC of less than 1 mg/L) | 2 (A grade of 2 represents an MIC of from 1 to 10 mg/L) | 3 (A grade of 3 represents an MIC of less than 1 mg/L) | 2 (A grade of 2 represents an MIC of from 1 to 10 mg/L) | 2 (A grade of 2 represents an MIC of from 1 to 10 mg/L) | 2 (A grade of 2 represents an MIC of from 1 to 10 mg/L) | 1 (a grade of 1 represents an MIC of greater than 10 mg/L) | 2 (A grade of 2 represents an MIC of from 1 to 10 mg/L) | 1 (a grade of 1 represents an MIC of greater than 10 mg/L) | 
4 | COC(=O)Cn1ccc(C2CCC2)c1C(=O)C(=O)Nc1ccc(N2CCN(c3cc(C)cc(C)n3)CC2)cc1 [Example 107, (3-Cyclobutyl-2-{4-[4-(4,6-dimethyl-pyridin-2-yl)-piperazin-1-yl]-phenylaminooxalyl}-pyrrol-1-yl)-acetic acid methyl ester] | 1 (a grade of 1 represents an MIC of greater than 10 mg/L) | 1 (a grade of 1 represents an MIC of greater than 10 mg/L) | 2 (A grade of 2 represents an MIC of from 1 to 10 mg/L) | 1 (a grade of 1 represents an MIC of greater than 10 mg/L) |  | 3 (A grade of 3 represents an MIC of less than 1 mg/L) | 1 (a grade of 1 represents an MIC of greater than 10 mg/L) |  |  |  |  | 1 (a grade of 1 represents an MIC of greater than 10 mg/L) | 1 (a grade of 1 represents an MIC of greater than 10 mg/L) | 3 (A grade of 3 represents an MIC of less than 1 mg/L) | 1 (a grade of 1 represents an MIC of greater than 10 mg/L) | 3 (A grade of 3 represents an MIC of less than 1 mg/L) | 1 (a grade of 1 represents an MIC of greater than 10 mg/L) | 
5 | COCCn1c(C)cc(-c2ccccc2)c1C(=O)C(=O)Nc1ccc(N2CCN(c3cc(C)cc(C)n3)CC2)cc1Cl [Example 92, N-{2-Chloro-4-[4-(4,6-dimethyl-pyridin-2-yl)-piperazin-1-yl]-phenyl}-2-[1-(2-methoxy-ethyl)-5-methyl-3-phenyl-1H-pyrrol-2-yl]-2-oxo-acetamide] | 1 (a grade of 1 represents an MIC of greater than 10 mg/L) | 1 (a grade of 1 represents an MIC of greater than 10 mg/L) | 3 (A grade of 3 represents an MIC of less than 1 mg/L) | 1 (a grade of 1 represents an MIC of greater than 10 mg/L) |  | 3 (A grade of 3 represents an MIC of less than 1 mg/L) | 3 (A grade of 3 represents an MIC of less than 1 mg/L) |  |  |  |  | 3 (A grade of 3 represents an MIC of less than 1 mg/L) | 3 (A grade of 3 represents an MIC of less than 1 mg/L) | 3 (A grade of 3 represents an MIC of less than 1 mg/L) | 3 (A grade of 3 represents an MIC of less than 1 mg/L) | 3 (A grade of 3 represents an MIC of less than 1 mg/L) | 3 (A grade of 3 represents an MIC of less than 1 mg/L) | 
